Results published in patent US5541183A, “Ginkgolide derivatives” (priority 1993, dated 1996).
Like-named read-outs stand apart in the source and are kept apart here.

How the values were obtained:
PAF induced Lethality = PAF induced Lethality in Mice; assay type: in vivo; conditions: 10 mg/kg intraperitoneally, 2 minutes before PAF 10 μg/kg I.V.; alive after 2 hours; control 0
Procedure: Pharmacology Example 5: PAF induced Lethality in Mice
PAF given I.V. (10 μg/kg) to mice causes an immediate hypotensive shock leading to death in 1 hour or less. Compounds were given intraperitoneally (dose of compounds : 10 mg/kg) at 2 minutes before the PAF challenge. Animals alive after 2 hours were counted and the activity of test compounds expressed as % survival corrected for any control (saline treated) animals which survived the PAF challenge.

bronchial eosinophilia = experiment: aeroallergen-induced bronchial infiltration of eosinophils in the bronchoalveolar lavage fluid; assay type: in vivo, guinea pig (Hartley strain); conditions: 30 mg/kg p.o., + 4h after aeroallergen challenge; for % Inhibition of bronchial eosinophilia: at 24 hours; for Eosinophils in BALF (Mean ± SEM): counted at 24 hours, vehicle 927 ± 131
Procedure: Pharmacology Example 4: The aeroallergen-induced bronchial infiltration of eosinophils in the bronchoalveolar lavage fluid.
Adult, male Hartley-strain guinea pigs weighing 492-735 g were sensitized by intraperitoneal injection of 10 μg ovalbumin (OA) mixed in 100-mg aluminum hydroxide. And guinea pigs were pretreated with pyrilamine (1.0 mg/kg) intraperitoneally 30 min. before aeroallergen challenge. Individual guinea pigs were placed in a two-liter glass chamber and exposed to a five aerosol of OA solution (0.5 mg/ml in saline containing 0.02% antifoal emulsion for a period of 10 min.).
4 hours after aero allergen challenge, the guinea pigs received either vehicle or compounds suspended in 1% acacia by oral garage.
24 hours after aero allergen challenge, the animals were euthanized with an i.p. overdose of pentobarbital sodium (100 mg/kg). The abdominal cavity was opened, and the animal was exsaguinated by cutting the abdominal aorta. A midline incision was made through the rib cage, exposing the heart and lungs.
The trachea was cannulated with an 18-gauge stainless steel feeding tube; 20 ml/kg of prewarmed (37° C.) physiological saline was instilled and the BALF was gently withdrawn.
BALF (amounting to 60-80% of the saline infused) was transferred to a 10 ml vacutainer containing 0.10 ml of 15% EDTA solution and centrifugated at 2400 rpm for 10 min.
The supernatant was poured off, and the cell pellet was suspended in physiological saline equal to the ratio of BALF recovered (ml) and physiological saline instilled in the lungs (ml), multiplied by two.
The eosinophils in BALF were counted by Unopette Test 5877.
The mean numbers of eosinophils±SEM in the BALF of compound-treated animals and corresponding control "vehicle"-treated animals were compared by Student's t-test. A P value of 0.05 or less was considered significant. Table 4 lists results from this assay for inhibition of bronchial eosinophilia for illustrative examples of this invention.

[1] = system: PAF-induced rabbit platelet aggregation; experiment: PAF-induced rabbit platelet aggregation; assay type: cell-based, rabbit (New Zealand white); conditions: Oryctolagus cuniculus, read-out: IC50, inhibition of PAF-induced rabbit platelet aggregation
Procedure: Pharmacology Example 1: PAF-induced rabbit platelet aggregation
Blood was collected from the ear artery of a male New Zealand white rabbit and mixed with 3.8% sodium citrate in a 9:1 volume ratio. Platelet rich plasma (PRP) was obtained by centrifugation of the blood at 150 g for 10 min at room temperature. The number of platelets was adjusted to 3×10^8 platelets/ml with platelet poor plasma. Platelet aggregation was monitored by continuous recording of light transmission in a dual-channel aggregometer (Chrono-Log 560-VS) coupled with a two channel recorder (Chrono-Log 707). Stirred PRP was treated with various concentrations of the test compounds or vehicle (0.5% DMSO) for 2 min and then PAF(5×10^-9 M) was added to induce platelet aggregation.
Inhibition values were calculated by comparing the extent of aggregation obtained in the presence of the vehicle alone (0.5% DMSO) and in the presence of a test compound. Log concentration-response curves were generated and the IC50 values were determined by regression analysis.
Table 1 lists results from this assay for inhibition of PAF-induced rabbit platelet aggregation for illustrative examples of the compounds of this invention.

[2] = system: Ag-induced bronchoconstriction; experiment: Ag-induced bronchoconstriction in the guinea pig; assay type: in vivo, guinea pig (Hartley strain); conditions: for ED50: Cavia porcellus, iv, 10 min, read-out: ID50, Ag-induced bronchoconstriction
Procedure: Pharmacology Example 3: Ag-induced bronchoconstriction
All experiments utilized male guinea pigs (Hartley strain), weighing 350 to 500 g. The animal was passively sensitized with rabbit anti-chicken egg albumin (1.3 mg/kg), 17-24 hrs before ovaibumin challenge. Passively sensitized animals were anesthetized with ethyl carbamate 1.5 g/kg, i.p.). An intratracheal cannula was inserted into trachea and indwelling catheters were inserted into the right carotid artery and left jugular vein. The animals were ventilated with a small animal respirator (UGO BASILE 7025, 70 breaths/min, 1 ml/stroke/100 g). To monitor dead or not, mean arterial pressure was measured continuously with a pressure transducer (Physiological Pressure Transducer, MICRON INSTRUMENT MP-15) connected to an amplifier (COULBOURN INSTRUMENT 572-25) and recorder (COULBOURN INSTRUMENT R14-18). The rate of bronchoconstriction was measured as an increase in lung overflow with a bronchospasm transducer (UGO BASILE 7020) from a side arm off the tracheal cannula, and expressed as a percentage of maximum broncoconstriction obtained by clamping off the tracheal cannular. Test compounds or vehicle (0.5% DMSO) were administered through the cannula into the jugular vein and ovalbumin (1.0 mg/kg, i.v.) was administered 10 minutes later. Bronchoconstriction response was compared to that obtained with control group treated with vehicle. Percent inhibition was calculated for each dose. If necessary, log dose-response curves were generated and the ID50 values were determined by regression analysis.

[3] = system: PAF-induced bronchoconstriction; experiment: PAF-induced bronchoconstriction in the guinea pig; assay type: in vivo, guinea pig (Hartley strain); conditions: for ED50: Cavia porcellus, iv, read-out: ID50, PAF-induced bronchoconstriction
Procedure: Pharmacology Example 2: PAF-induced bronchoconstriction
All experiments utilized male guinea pigs (Hartley strain), weighing 350 to 450 g, that were anesthetized with ethyl carbamate (1.5 g/kg, i.p.). An intratracheal cannula was inserted into trachea and indwelling catheters were inserted into the right carotid artery and left jugular vein. The animals were ventilated with a small animal respirator (UGO BASILE 7025, 70 breaths/min, 1 ml/stroke/100 g). To monitor dead or not, mean arterial pressure was measured continuously with a pressure transducer (Physiological Pressure Transducer, MICRON INSTRUMENT MP-15) connected to an amplifier (COULBOURN INSTRUMENT 572-25) and recorder (COULBOURN INSTRUMENT R14-18). The rate of bronchoconstriction was measured as an increase in lung overflow with a bronchospasm transducer (UGO BASILE 7020) from a side arm off the tracheal cannula, and expressed as a percentage of maximum bronchoconstriction obtained by clamping off the tracheal cannula. Test compounds or vehicle (0.5% DMSO) were administered through the cannula into the jugular vein and PAF (100 ng/kg, i.v.) was administered. Bronchoconstriction response was compared to that obtained with control group treated with vehicle. Percent inhibition was calculated for each dose. Log dose-response curves were generated and the ID50 values were determined by regression analysis, and the results are presented in Table 2.
Table 2: Results for inhibition of PAF-induced bronchoconstriction in the guinea pig.

[4] = 0.1 mg/kg, jugular vein, ovalbumin 1.0 mg/kg i.v. 10 minutes later
[5] = 0.5 mg/kg, jugular vein, ovalbumin 1.0 mg/kg i.v. 10 minutes later
[6] = 1.0 mg/kg, jugular vein, ovalbumin 1.0 mg/kg i.v. 10 minutes later
[7] = jugular vein, ovalbumin 1.0 mg/kg i.v. 10 minutes later

Compound | Survival rate (%) (PAF induced Lethality) | % Inhibition of bronchial eosinophilia (bronchial eosinophilia) [%] | Eosinophils in BALF (Mean ± SEM) (bronchial eosinophilia) | IC50 [1] [nM] | % inhibition of Ag-induced bronchoconstriction [2, 4] [%] | % inhibition of Ag-induced bronchoconstriction [2, 5] [%] | % inhibition of Ag-induced bronchoconstriction [2, 6] [%] | ED50 [2] [mg/kg] | IC50 ([1]; rabbit PRP, PAF 5×10^-9 M) [nM] | ED50 [2, 7] [mg/kg] | % inhibition of PAF-induced bronchoconstriction ([3]; 0.01 mg/kg, jugular vein, PAF 100 ng/kg i.v.) [%] | % inhibition of PAF-induced bronchoconstriction ([3]; 0.02 mg/kg, jugular vein, PAF 100 ng/kg i.v.) [%] | % inhibition of PAF-induced bronchoconstriction ([3]; 0.04 mg/kg, jugular vein, PAF 100 ng/kg i.v.) [%] | ED50 ([3]; jugular vein, PAF 100 ng/kg i.v.) [mg/kg] | % inhibition of PAF-induced bronchoconstriction ([3]; 0.50 mg/kg, jugular vein, PAF 100 ng/kg i.v.) [%] | % inhibition of PAF-induced bronchoconstriction ([3]; 1.00 mg/kg, jugular vein, PAF 100 ng/kg i.v.) [%] | % inhibition of PAF-induced bronchoconstriction ([3]; 2.00 mg/kg, jugular vein, PAF 100 ng/kg i.v.) [%] | ED50 [3] [mg/kg]
CC1C(=O)OC2C(O)C34C5CC(C(C)(C)C)C36C(OC(=O)C6OCc3ccc6c(c3)OCO6)OC4(C(=O)O5)C12O (stereo not shown) [Example 82, 10-piperonyloxy-Ginkgolide B] | 100 | 34 | 616 ± 145 10^3 cells/m1 BALF | 50.7 | 60 | 94 | 100 | 0.09 |  |  |  |  |  |  |  |  |  | 
Cc1cnc(COC2C(=O)OC3OC45C(=O)OC6CC(C(C)(C)C)C32C64C(O)C2OC(=O)C(C)C25O)c(C)c1 (stereo not shown) [Example 96, 10-(3,5-dimethyl-2-pyridinyl) -methoxy-Ginkgolide] | 100 | 31 | 641 ± 134 10^3 cells/m1 BALF |  | 50 | 97 | 100 |  | 24.5 | 0.1 | 17 | 26 | 96 | 0.023 |  |  |  | 
CC1C(=O)OC2C(O)C34C5CC(C(C)(C)C)C36C(OC(=O)C6OCc3ccc(O)cn3)OC4(C(=O)O5)C12O (stereo not shown) [Example 115, 10-(2-(5-hydroxypyridinyl)-methoxy)-Ginkgolide B] | 100 |  |  |  | 65 | 100 | 100 |  | 152 | 0.08 |  |  |  |  |  |  |  | 
CC1C(=O)OC2C(O)C34C5CC(C(C)(C)C)C36C(OC(=O)C6O)OC4(C(=O)O5)C12O (stereo not shown) [Ginkgolide B, reference compound] |  | 0 | 1148 ± 305 10^3 cells/m1 BALF |  | 10 | 42 | 82 |  | 258 | 0.83 |  |  |  |  | 38 | 64 | 100 | 0.6
